Our source for the IC50 values is patent US4590189A, “Condensed pyrrolinone derivatives, their production and use” (Takeda Chemical Industries, Ltd., priority 1982, dated 1986).

By pIC50 is commonly meant the IC50 on a negative log10 scale, so that one unit is a factor of ten.

This assay addresses benzodiazepine receptor. In words: Specific benzodiazepine receptor binding: displacement of [^3 H] diazepam in crude mitochondrial fractions of rat cerebral cortex. Further details: species or system rat (male SD strain). As to conditions: [^3 H] diazepam 2 nM, pH 7.4, 4° C., 20 minutes; read-out: IC50, effect on specific binding of [^3 H] diazepam. How it is done:
The pharmacological properties of the compounds (I) of this invention were investigated by determining the substituting power thereof for radioactive diazepam from a benzodiazepine receptor.
Specific benzodiazepine receptor binding was carried out according to the method of C. Braestrup and R. F. Squiras (European J. Pharmacol., Vol. 48, 263-270, 1978). Thus, crude mitochondrial fractions obtained from the cerebral cortex of male SD strain rats 9 to 10 weeks of age were suspended in 50 mM Tris-HCl buffer (pH 7.4) and incubated with one of a series of concentrations of the test compound and [^3 H] diazepam (final concentration 2 nM) at 4° C. for 20 minutes. Then, the suspension was filtered through a Whatman GF/B glass fiber filter and the radioactivity of [^3 H] diazepam on the filter was measured by the liquid scintillation method. The concentration of the test drug which caused a 50% inhibition of [^3 H] diazepam specific binding was taken as the IC50 value.

pIC50: −log10 of the molar value.

For the compound `O=C(CC1c2ccccc2C(=O)N1c1ccc2ccc(Cl)nc2n1)N1CCCCC1` (stereo not drawn), the pIC50 is 9.19. With `COc1ccc(N2C(=O)c3ccccc3C2CC(=O)N2CCSC2)cc1` (stereo not drawn), the pIC50 was 8.31. In the case of `COc1ccc(N2C(=O)C3=C(SCCS3)C2CC(=O)N2CCCCC2)cc1` (stereo not drawn) it was 8.98; in that of `O=C(CC1c2ccccc2C(=O)N1c1ccc(Cl)cc1)N1CCCCC1` (stereo not drawn), 8.05.

In the case of `O=C(CC1C2=C(SCCS2)C(=O)N1c1ccc(Cl)cc1)N1CCCCC1` (stereo not drawn), the pIC50 is 8.02. In the case of `O=C(CC1C2=C(SCCS2)C(=O)N1c1ccc(Cl)cc1)N1CCCCCC1` (stereo not drawn), the pIC50 was 8.24. In the case of `CN(Cc1ccccc1)C(=O)CC1c2ccccc2C(=O)N1c1ccccc1` (stereo not drawn) it was 7.71. For `COc1ccc(N2C(=O)c3ccc(Cl)cc3C2CC(=O)N2CCCCC2)cc1` (stereo not drawn), the pIC50 is 9.10. For `O=C(CC1C2=C(SCCS2)C(=O)N1c1ccccc1)N1CCCCC1` (stereo not drawn), the pIC50 is 8.12.

For the compound `COc1ccc(N2C(=O)c3ccccc3C2CC(=O)N2CCCCC2)cc1` (stereo not drawn), the pIC50 was 8.35.

For the compound `COc1ccc(N2C(=O)c3ccc(Cl)cc3C2CC(=O)N2CCN(C)CC2)cc1` (stereo not drawn), the pIC50 is 8.70.

With `COc1ccc(N2C(=O)c3ccc(N)cc3C2CC(=O)N2CCCCC2)cc1` (stereo not drawn), the pIC50 was 8.42.
